Key:
[1] = molecular target: Norepinephrine transporter (Rattus norvegicus, UniProt Q9WTR4); assay: Inhibition of [3H]nisoxetine binding to norepinephrine (NE) transporter
[2] = molecular target: Sodium-dependent dopamine transporter (Rattus norvegicus, UniProt P23977); assay: Inhibition of [3H]WIN-35428 binding to dopamine (DA) transporter
[3] = molecular target: Sodium-dependent serotonin transporter (Rattus norvegicus, UniProt P31652); assay: Inhibition of [3H]paroxetine binding to 5-hydroxytryptamine (5-HT) transporter
Sodium-dependent serotonin transporter, sequence (P31652 whole entry): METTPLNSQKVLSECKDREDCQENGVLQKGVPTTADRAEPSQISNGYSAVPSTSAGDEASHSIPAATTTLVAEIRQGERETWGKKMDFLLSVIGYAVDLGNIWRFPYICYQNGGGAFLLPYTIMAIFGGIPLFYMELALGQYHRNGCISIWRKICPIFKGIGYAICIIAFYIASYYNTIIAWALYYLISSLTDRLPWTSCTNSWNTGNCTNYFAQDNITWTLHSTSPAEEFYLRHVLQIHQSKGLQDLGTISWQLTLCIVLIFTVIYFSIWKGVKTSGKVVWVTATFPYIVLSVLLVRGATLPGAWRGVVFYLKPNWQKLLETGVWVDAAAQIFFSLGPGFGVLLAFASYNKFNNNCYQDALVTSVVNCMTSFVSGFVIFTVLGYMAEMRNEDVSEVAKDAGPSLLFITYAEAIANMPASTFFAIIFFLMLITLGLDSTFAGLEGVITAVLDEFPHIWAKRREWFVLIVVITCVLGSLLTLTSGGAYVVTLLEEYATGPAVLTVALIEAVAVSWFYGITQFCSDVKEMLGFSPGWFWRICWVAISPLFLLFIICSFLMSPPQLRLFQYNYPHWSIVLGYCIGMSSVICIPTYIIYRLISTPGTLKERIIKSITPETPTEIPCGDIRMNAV

Norepinephrine transporter, sequence (Q9WTR4 whole entry): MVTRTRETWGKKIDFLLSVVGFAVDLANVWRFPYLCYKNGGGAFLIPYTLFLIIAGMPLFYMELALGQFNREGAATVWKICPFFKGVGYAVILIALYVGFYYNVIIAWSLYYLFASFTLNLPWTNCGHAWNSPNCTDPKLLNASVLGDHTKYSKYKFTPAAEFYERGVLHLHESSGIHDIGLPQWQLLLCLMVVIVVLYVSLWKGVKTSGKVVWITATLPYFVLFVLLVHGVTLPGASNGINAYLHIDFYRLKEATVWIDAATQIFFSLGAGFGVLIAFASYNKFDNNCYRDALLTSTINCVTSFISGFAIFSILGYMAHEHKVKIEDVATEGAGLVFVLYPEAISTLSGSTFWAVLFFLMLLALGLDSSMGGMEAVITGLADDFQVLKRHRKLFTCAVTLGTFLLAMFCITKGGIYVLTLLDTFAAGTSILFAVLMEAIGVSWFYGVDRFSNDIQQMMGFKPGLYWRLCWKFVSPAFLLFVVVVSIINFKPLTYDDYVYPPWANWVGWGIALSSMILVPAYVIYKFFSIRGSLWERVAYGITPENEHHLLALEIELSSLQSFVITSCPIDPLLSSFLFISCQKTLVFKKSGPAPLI
Sodium-dependent dopamine transporter, sequence (P23977 whole entry): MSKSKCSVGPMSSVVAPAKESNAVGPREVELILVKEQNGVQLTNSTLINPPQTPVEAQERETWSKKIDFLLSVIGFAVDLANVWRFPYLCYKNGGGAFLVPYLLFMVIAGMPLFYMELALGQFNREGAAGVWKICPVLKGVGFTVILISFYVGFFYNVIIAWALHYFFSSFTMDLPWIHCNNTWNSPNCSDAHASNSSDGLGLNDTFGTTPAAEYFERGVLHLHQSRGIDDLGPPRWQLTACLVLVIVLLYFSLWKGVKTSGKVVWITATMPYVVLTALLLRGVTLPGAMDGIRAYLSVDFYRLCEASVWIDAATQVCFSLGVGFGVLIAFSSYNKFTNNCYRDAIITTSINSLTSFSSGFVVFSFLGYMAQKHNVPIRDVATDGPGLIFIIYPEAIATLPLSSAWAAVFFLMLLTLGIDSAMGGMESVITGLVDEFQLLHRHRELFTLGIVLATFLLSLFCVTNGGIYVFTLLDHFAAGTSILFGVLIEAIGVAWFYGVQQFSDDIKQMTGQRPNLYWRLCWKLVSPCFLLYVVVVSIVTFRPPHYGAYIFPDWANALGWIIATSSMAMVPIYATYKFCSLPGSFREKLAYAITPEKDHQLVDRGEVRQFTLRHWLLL

Row | Structure (SMILES) | IC50 [1] | IC50 [2] | IC50 [3]
1 | COC(=O)[C@H]1[C@@H](c2ccc(F)cc2)C[C@H]2CC[C@H]1N2C | 834 nM |  | 
2 | COC(=O)C1C2CCC(C[C@@H]1c1ccc(F)cc1)N2 (stereo not given in full) | 18.8 nM | 4.39 nM | 68.6 nM
3 | CCc1ccc([C@H]2C[C@H]3CCC(N3)[C@H]2C(=O)OC)cc1 | 122 nM | 49.9 nM | 8.13 nM
4 | CC(C)OC(=O)[C@@H]1C2CC[C@H](C[C@@H]1c1ccc(I)cc1)N2 | 132 nM | 1.06 nM | 3.59 nM
5 | COC(=O)[C@@H]1C2CC[C@H](C[C@@H]1c1ccc(I)cc1)N2 | 7.54 nM | 0.69 nM | 0.36 nM
6 | COC(=O)C1C2CCC(C[C@@H]1OC(=O)c1ccccc1)N2 (stereo not given in full) | 139 nM | 206 nM | 127 nM
7 | COC(=O)C1C2CCC(C[C@@H]1c1ccccc1)N2 (stereo not given in full) | 84.5 nM | 30.8 nM | 156 nM
8 | COC(=O)C1C2CC[C@H](C[C@@H]1c1ccc(I)cc1)N2C (stereo not given in full) | 36 nM |  | 4.21 nM
9 | COC(=O)C1C2CCC(C[C@@H]1c1ccc(Cl)cc1)N2 (stereo not given in full) | 5.45 nM | 0.62 nM | 4.13 nM
10 | CCc1ccc([C@H]2C[C@H]3CCC(C2C(=O)OC)N3C)cc1 (stereo not given in full) | 3910 nM | 55 nM | 28.4 nM
11 | CC(C)OC(=O)C1C2CC[C@H](C[C@@H]1c1ccc(I)cc1)N2C (stereo not given in full) | 285 nM | 0.43 nM | 66.8 nM
